Reference: patent publication US20070212449A1, “Reduction of the titratable acidity and the prevention of tooth and other bone degeneration” (priority 2006, published 2007)

Key:
[1] = Effect of IP6 and inositol additions on % TA of soft drinks; format: physicochemical
Description: Titratable (total) acidity measures the total or potential acidity and indicates the total number of acid molecules, whereas a pH measurement represents the hydrogen ion concentration. The titratable acidity (as % citric acid) is calculated by titrating the beverage against sodium hydroxide (NaOH) solution to pH 8.2 and using the following relationship: [formula] in accordance with the standard procedures for determining the titratable acidity of a variety of fluids, including milk.

MG-63 osteoblast cells = assay: MTT-based proliferation assay, osteoblast cells; format: cell-based, human
Description: (§1) Human osteoblast MG-63 cells and HS-883 osteoclast cells were treated with IP6 in vitro and their abilities to proliferate and differentiate were evaluated by MTT-based cytotoxicity assay (for proliferation) and alkaline phosphatase (ALP) and matrixmetalloproteinase-2 (MMP-2), activity for differentiation of bone cells.
(§2) In an additional study, osteoblast MG-63 human osteosarcoma cells and osteoclast HS-883.T human bone giant sarcoma cells were cultured in Eagle's Minimum Essential Medium, in Eagle's Balanced Salt Solution with non-essential amino-acids and Dulbecco's Modified Eagles Medium, respectively. Both media were supplemented with 10% fetal bovine serum (FBS) and L-glutamine. Additionally, 1 mM of sodium pyruvate was added to culture media for MG-63 cells.
(§3) Stock solution of 100 mM Na-IP6 was prepared in distilled water, pH adjusted to 7.4, and diluted as needed in culture media.
(§4) Cell growth and proliferation were determined with the MTT-based cytotoxicity assay. Briefly, the MG-63 and HS-883.T cell lines were seeded into 96-well plates at a density 2000 cells per well. […] Cells were allowed to proliferate for 24 or 72 hours. 100 μL of MTT solution at concentration I mg/ml was added at the end of proliferation period to each well and allowed to incubate for 4 hours. The formazan product of MTT reduction was dissolved by adding 150 μL of DMSO. Immediately after, growth changes were evaluated by recording the reduction of MTT at 540 nm in a plate reader using data reduction software for measurement of optical density.

[2] = system: alkaline phosphatase (ALP); assay: ALP activity in osteoblast cells (differentiation marker); format: cell-based, human; conditions: MG-63 cells
Description: as §1, with “cells. IP6 activates ALP and MMP-2 expression in osteoblast cells, indicating their better ability to lay new bone.” for “cells.”
(§5) To study the osteoblast and osteoclast differentiation in the presence of IP6, the following markers were evaluated: alkaline phosphatase (ALP), matrix metalloproteinase-2 (MMP-2) and tartrate-resistant acid phosphatase (TRAP).
ALP activity was measured using a commercially available kit. Osteoblast cells were plated in tissue culture dishes in amount of 4×10^5 cells per plate. […] Incubation was stopped on ice; cells were washed twice with PBS and lysed with 0.25% of Triton X-100. 25 μL of lysate was mixed with 2.5 mL of ALP sample buffer, incubated for 4 or 24 hours in room temperature and absorption was read in a plate reader at λ405 nm.

[3] = system: matrix metalloproteinase-2 (MMP-2); assay: MMP-2 (gelatinase A) zymography, culture media of osteoblast cells; format: cell-based, human; conditions: for activity of gelatinase A in culture media: osteoblast cells
Description: as §1, with “cells. IP6 activates ALP and MMP-2 expression in osteoblast cells, indicating their better ability to lay new bone.” for “cells.”
as §5
(§6) To evaluate MMPs activity in culture medium zymography was performed. Cells were plated in tissue culture dishes, allowed to grow to 60 -70% confluence and then were treated with different concentrations of IP6 in serum free media. After 48 hours conditioned media was collected and immediately analyzed for matrix metalloproteinase activity. 10% Polyacrilamide gels were used to perform electrophoresis, following which gels were incubated in renaturating buffer for 30 minutes with gentle agitation. Incubation was continued in developing buffer overnight at 37° C. At the end of incubation time gels were stained with Comassie blue staining solution for 10 minutes, rinsed with destaining solution one (9.2% acetic acid, 45.4% methanol) and incubated with destaining solution two (10% acetic acid and 10% methanol) at room temperature as needed. Proteinase activity was measured using UN-SCAN-IT gel digitizing software for Windows and expressed as percentage according to the amount of determined Pixel average for each band.

[4] = system: matrix metalloproteinase-2 (MMP-2); assay: MMP-2 zymography, culture media of osteoclast cells; format: cell-based, human; conditions: 100 and 300 μM of IP6
Description: as §5, §6

HS-883 osteoclast cells = assay: MTT-based proliferation assay, osteoclast cells; format: cell-based, human
Description: as §1, §2, §3, §4

[5] = Enamel dissolution (weight loss of enamel) in soft drinks with or without phytic acid; parameters: species or system human; conditions: for effect on enamel dissolution: addition of 1% phytic acid (FIG. 10)
Description: For instance, studies were performed on sections of enamel removed from extracted human teeth as well as on extracted human teeth that were coated such that only the crown of the tooth (the enamel portion) was exposed to the beverage. […] These enamel specimens were immersed in the various soft drinks with or without additions of 0.5 and 1.0% by weight of dodecasodium salt of phytic acid (Inositol hexaphosphoric acid). The enamel dissolution was determined as the weight loss of the enamel at different time intervals in the untreated and treated beverages, as shown in FIGS. 7 and 8.

SMILES: O=P([O-])([O-])O[C@H]1[C@H](OP(=O)([O-])O)[C@H](OP(=O)([O-])[O-])[C@H](OP(=O)([O-])O)[C@@H](OP(=O)([O-])[O-])[C@@H]1OP(=O)([O-])O.[Na+].[Na+].[Na+].[Na+].[Na+].[Na+].[Na+].[Na+].[Na+] [Na-IP6, dodecasodium inositol hexaphosphate]
- % TA ([1]; Fresca, after addition of 0.5 g Ca-Mg IP6 + Inositol or 1 g Na-IP6 (beverage alone 0.46)): 0.0%
- % TA ([1]; Red Bull, after addition of 0.5 g Ca-Mg IP6 + Inositol or 1 g Na-IP6 (beverage alone 1.04)): 0.22%

SMILES: C[C@]12CCC(=O)C=C1CC[C@@H]1[C@@H]2[C@@H](O)C[C@@]2(C)[C@H]1CC[C@]2(O)C(=O)CO [Hydrocortisone, hydrocortisone, reference compound]
- reduction of the number of osteoblast cells (MG-63 osteoblast cells; 10 μM hydrocortisone, p < 0.05): 30.5%

SMILES: O=P(O)(O)O[C@H]1[C@H](OP(=O)(O)O)[C@@H](OP(=O)(O)O)[C@H](OP(=O)(O)O)[C@@H](OP(=O)(O)O)[C@H]1OP(=O)(O)O [IP6, inositol hexaphosphate]
- ALP activity/expression in osteoblast cells [2]: activates
- MMP-2 expression in osteoblast cells ([3]; MG-63 cells): activates
- activity of gelatinase A in culture media ([3]; 300 μM of IP6): Significant increase of activity
- activity of gelatinase A in culture media ([3]; IP6 50 to 300 μM, 48 hours): increased the activity of gelatinase A
- pro-MMP-2 and MMP-2 activity [4]: decrease
- absorbance at 540 nM (MTT), mean ± SD (MG-63 osteoblast cells; Na-IP6 50 μM + 70 μM inositol with 10 μM hydrocortisone): 1.73 ± 0.03
- absorbance at 540 nM (MTT), mean ± SD (MG-63 osteoblast cells; Na-IP6 50 μM + 70 μM inositol, no hydrocortisone (control 1.54 ± 0.12)): 1.69 ± 0.09
- effect on hydrocortisone suppression of osteoblast growth/proliferation (MG-63 osteoblast cells; with 10 μM hydrocortisone, 50-300 μM sodium salt of IP6 and 70 μM inositol): opposes the negative effect of hydrocortisone
- effect on titratable acidity ([1]; Fresca, 0.5% addition (FIG. 9)): reduction in titratable acidity
- effect on titratable acidity ([1]; Mountain Dew, 1.0% addition (FIG. 9)): reduction in titratable acidity
- effect on titratable acidity ([1]; Sprite, 0.5% addition (FIG. 9)): reduction in titratable acidity
- absorbance at 540 nm (MTT), mean ± SD (HS-883 osteoclast cells; 300 μM Na-IP6 + 70 μM inositol with 10 μM hydrocortisone): 0.45 ± 0.02
- absorbance at 540 nm (MTT), mean ± SD (HS-883 osteoclast cells; 300 μM Na-IP6 + 70 μM inositol, no hydrocortisone (control 0.52 ± 0.01)): 0.34 ± 0.02
- proliferation of osteoclast cells (HS-883 osteoclast cells; in vitro IP6 treatment): suppresses the proliferation
- effect on enamel dissolution ([5]; 5% lemon juice): reduction in enamel dissolution
- effect on enamel erosivity ([5]; Mountain Dew beverage (FIG. 7)): reducing enamel erosivity
- effect on enamel dissolution ([5]; Mountain Dew): reduction in enamel dissolution
- effect on enamel erosivity ([5]; Red Bull beverage (FIG. 8)): reducing enamel erosivity
